Measurements published in publication PMC4418728, “A High Throughput Protein Microarray Approach to Classify HIV Monoclonal Antibodies and Variant Antigens” (PLoS ONE, 2015).
No end group written: not given here.

Experiments:
mAb 2F5 = experiment: In-solution competition ELISA; type: binding, human; details: competition with biotinylated peptide bio-57 (0.1 μg/ml) for mAb 2F5 (0.2 μg/ml), peptide 1:3 dilutions from 0.04 mM, 2 h at 37°C, duplicate, at least two experiments; for IC50: read-out: IC50 of competitor peptide, mAb 2F5
Method: (§1) The in-solution competition ELISA was performed according to Stanfield and colleagues. In brief, 96-well plates were coated o/n with 200 ng/well neutravidin (Pierce) in PBS at 4°C and blocked with 4% NFDM for 1 h at RT. Different competing MPER peptide analogs (serially diluted 1:3 in 1% NFDM at a starting concentration of 0.04 mM) were mixed with a constant concentration of biotinylated peptide bio-0705 (0.1 μg/ml) or bio-57 (0.1 μg/ml) and the corresponding human mAb 4E10 (0.5 μg/ml) or mAb 2F5 (0.2 μg/ml), respectively. The antibody/peptide mixture was incubated for 2 h at 37°C, subsequently transferred to the neutravidin plates and incubated at 37°C for 20 min. Bound antibodies were detected with HRP labeled goat anti human F(ab)2 conjugate (Pierce). After 1 h at RT, wells were developed, stopped and read as described above. The concentration of competitor peptide corresponding to a half-maximal signal (IC50) was determined by nonlinear fit interpolation of the resulting binding curve (GraphPad PRISM 5.0 software). Each peptide competitor was tested in duplicate in at least two separate experiments.

mAb 4E10 = experiment: In-solution competition ELISA; type: binding, human; details: for IC50: read-out: IC50 of competitor peptide, mAb 4E10
Method: as §1

[1] = competition with biotinylated peptide bio-0705 (0.1 μg/ml) for mAb 4E10 (0.5 μg/ml), peptide 1:3 dilutions from 0.04 mM, 2 h at 37°C, duplicate, at least two experiments

Substance	IC50 (mAb 2F5)	IC50 (mAb 4E10; [1])	enhancement in IC50 compared to control peptide 94.1, mAb 4E10 (mAb 4E10; in-solution competition assay)	IC50 of competitor peptide, mAb 2F5 (mAb 2F5)	IC50 of competitor peptide, mAb 4E10 (mAb 4E10; [1])
ELDKWASLWNWFNITNWLWYIKIEELKSKIKRIENEIKRIKK [C22-pT, reference compound]	> 10000 nM	3270 nM	–	–	–
ELDKWASLWNWFDITNWLWYIKIEELKSKIKRIENEIKRIKK [compound 09128]	76.3 nM	0.9 nM	more than 80 fold	–	–
WTLNIFWIWSYLDWSNKKKK-NH2 [compound 08023, scrambled negative control peptide based on 09122]	–	–	–	did not interact	did not interact
